By IC50 is commonly meant the concentration at which inhibition is half-maximal.

Drawing on ChEMBL document CHEMBL3352110, “Design, synthesis and in vitro evaluation of novel dehydroabietic acid derivatives containing a dipeptide moiety as potential anticancer agents” (Eur J Med Chem, 2015), this text covers IC50 for 32 molecules.

Assay type in all cases: functional, cell-based
In one experiment the test system is NCI-H460. In words: Cytotoxicity against human NCI-H460 cells after 48 hrs by MTT assay. As to conditions: NCI-H460, 48 h. A general note: Formazan colour is commonly taken as a measure of viable cells.
The subject of a further experiment is HeLa. In words: Cytotoxicity against human HeLa cells after 48 hrs by MTT assay.
The nature of experiment [1]: Cytotoxicity against human HL7702 cells after 48 hrs by MTT assay. As to conditions: L02, 48 h.
In a further experiment the test system is MGC-803. In words: Cytotoxicity against human MGC803 cells after 48 hrs by MTT assay. As to conditions: MGC-803, 48 h.

With `COc1ccccc1NC(=O)[C@H](Cc1ccccc1)NC(=O)[C@]1(C)CCC[C@]2(C)c3ccc(C(C)C)cc3/C(=N\O)C[C@@H]12`, the IC50 in the experiment with NCI-H460 stood at 31 µM; in the experiment on HeLa, 19.3 µM; in experiment [1], 58.8 µM; in the experiment with MGC-803, 11.9 µM.

For the molecule `CC(C)c1ccc2c(c1)/C(=N\O)C[C@H]1[C@](C)(C(=O)N[C@H](Cc3ccccc3)C(=O)Nc3ccccc3Cl)CCC[C@]21C`, the IC50 with NCI-H460 turned out to be 26.9 µM; in the experiment with HeLa, 26.6 µM; in experiment [1], 48.2 µM; with MGC-803 it was 17 µM.

In the case of `COc1ccc(NC(=O)[C@@H](Cc2ccccc2)NC(=O)[C@]2(C)CCC[C@]3(C)c4ccc(C(C)C)cc4/C(=N\O)C[C@@H]23)cc1`, the IC50 in the experiment on NCI-H460 turned out to be 20.4 µM; in the experiment with HeLa, 17.3 µM; in experiment [1], 56.2 µM; in the experiment on MGC-803 it was 15 µM.

For the molecule `CC(C)c1ccc2c(c1)C(=O)C[C@H]1[C@](C)(C(=O)N[C@H](Cc3ccccc3)C(=O)Nc3ccccc3F)CCC[C@]21C`, the concentration for half-maximal inhibition (IC50) in the experiment with NCI-H460 stood at 61.4 µM; in the experiment with HeLa it was 25.9 µM; in experiment [1], 53.3 µM; in the experiment on MGC-803, 18.9 µM.

For the molecule `CC(C)c1ccc2c(c1)C(=O)C[C@H]1[C@](C)(C(=O)N[C@H](Cc3ccccc3)C(=O)Nc3ccc(Cl)cc3)CCC[C@]21C`, the IC50 in the experiment on NCI-H460 is 23.4 µM; in the experiment with HeLa, 32.3 µM; in experiment [1] it was 76.3 µM; in the experiment with MGC-803, 20.2 µM.

Turning to `CC(C)c1ccc2c(c1)/C(=N\O)C[C@H]1[C@](C)(C(=O)N[C@H](Cc3ccccc3)C(=O)Nc3ccc(Cl)cc3)CCC[C@]21C`, the IC50 in the experiment on NCI-H460 was determined as 17.6 µM; with HeLa, 20.2 µM; in experiment [1] it was 57.9 µM; with MGC-803 it was 17.8 µM.

For the molecule `COc1ccc(NC(=O)[C@H](Cc2ccccc2)NC(=O)[C@]2(C)CCC[C@]3(C)c4ccc(C(C)C)cc4C(=O)C[C@@H]23)cc1`, the concentration for half-maximal inhibition (IC50) in the experiment with NCI-H460 is above 100 µM; in the experiment on HeLa, 52.3 µM; in experiment [1] it was 59.6 µM; with MGC-803 it was 49 µM.

Turning to `CC(C)c1ccc2c(c1)C(=O)C[C@H]1[C@](C)(C(=O)N[C@H](Cc3ccccc3)C(=O)Nc3ccccc3Cl)CCC[C@]21C`, the IC50 in the experiment with NCI-H460 was 50 µM; in the experiment on HeLa, above 100 µM; in experiment [1], 46.5 µM; in the experiment on MGC-803, 29.7 µM.

On to `COc1cc(NC(=O)[C@@H](Cc2ccccc2)NC(=O)[C@]2(C)CCC[C@]3(C)c4ccc(C(C)C)cc4/C(=N\O)C[C@@H]23)cc(OC)c1OC`, for which the IC50 in the experiment on NCI-H460 is 36.1 µM; in the experiment on HeLa it was 32 µM; in experiment [1], 56.2 µM; with MGC-803, 15.6 µM.

As to `CC(C)c1ccc2c(c1)C(=O)C[C@H]1[C@](C)(C(=O)N[C@H](Cc3ccccc3)C(=O)Nc3ccc(F)cc3)CCC[C@]21C`, the 50% inhibitory concentration (IC50) in the experiment on NCI-H460 worked out at 34.3 µM; in the experiment with HeLa it was 16.3 µM; in experiment [1], 52.4 µM; in the experiment with MGC-803 it was 39.6 µM.

Take `COc1ccccc1NC(=O)[C@@H](Cc1ccccc1)NC(=O)[C@]1(C)CCC[C@]2(C)c3ccc(C(C)C)cc3C(=O)C[C@@H]12`: the IC50 amounted to 85.4 µM with NCI-H460, 40.7 µM with HeLa, 55.7 µM in experiment [1] and 30.9 µM in the experiment with MGC-803.

Turning to `O=c1[nH]cc(F)c(=O)[nH]1` [FLUOROURACIL], the figures for the IC50 with HeLa and in the experiment with MGC-803 were 36.5 µM and 30.4 µM, respectively.

As to `COc1ccc(NC(=O)[C@H](Cc2ccccc2)NC(=O)[C@]2(C)CCC[C@]3(C)c4ccc(C(C)C)cc4/C(=N\O)C[C@@H]23)cc1`, the half-inhibitory concentration (IC50) in the experiment with NCI-H460 stood at 32 µM; in the experiment with HeLa it was 10.9 µM; in experiment [1], 49.6 µM; in the experiment on MGC-803, 14.6 µM.

Consider `CC(C)c1ccc2c(c1)C(=O)C[C@H]1[C@](C)(C(=O)N[C@@H](Cc3ccccc3)C(=O)Nc3ccccc3F)CCC[C@]21C`, for which the IC50 with NCI-H460 was 57.1 µM; in the experiment on HeLa, 18.9 µM; in experiment [1], 47.6 µM; in the experiment on MGC-803, 18.9 µM.

As to `CC(C)c1ccc2c(c1)C(=O)C[C@H]1[C@](C)(C(=O)N[C@@H](Cc3ccccc3)C(=O)Nc3ccccc3)CCC[C@]21C`, the IC50 in the experiment with NCI-H460 was 29 µM; in the experiment on HeLa, 29.1 µM; in experiment [1], 51.6 µM; with MGC-803, 27.6 µM.

As to `COc1cc(NC(=O)[C@H](Cc2ccccc2)NC(=O)[C@]2(C)CCC[C@]3(C)c4ccc(C(C)C)cc4/C(=N\O)C[C@@H]23)cc(OC)c1OC`, the IC50 in the experiment with NCI-H460 stood at 36.6 µM; with HeLa, 25.9 µM; in experiment [1], 49.6 µM; in the experiment with MGC-803 it was 17.5 µM.

For `CC(C)c1ccc2c(c1)/C(=N\O)C[C@H]1[C@](C)(C(=O)N[C@@H](Cc3ccccc3)C(=O)Nc3ccc(Cl)cc3)CCC[C@]21C`, the IC50 in the experiment on NCI-H460 worked out at 102 µM; in the experiment on HeLa, 101 µM; in experiment [1], 60.8 µM; in the experiment with MGC-803, 25.8 µM.

As to `CC(C)c1ccc2c(c1)C(=O)C[C@H]1[C@](C)(C(=O)N[C@H](Cc3ccccc3)C(=O)Nc3ccccc3)CCC[C@]21C`, the IC50 was found to be 51.9 µM with NCI-H460, 57.8 µM in the experiment with HeLa, 53.3 µM in experiment [1] and 30.5 µM with MGC-803.

Consider `CC(C)c1ccc2c(c1)/C(=N\O)C[C@H]1[C@](C)(C(=O)N[C@H](Cc3ccccc3)C(=O)Nc3ccccc3F)CCC[C@]21C`, for which the concentration for half-maximal inhibition (IC50) came out at 42.5 µM in the experiment with NCI-H460, 20.8 µM in the experiment on HeLa, 54.8 µM in experiment [1] and 13.4 µM in the experiment with MGC-803.

On to `CC(C)c1ccc2c(c1)C(=O)C[C@H]1[C@](C)(C(=O)N[C@@H](Cc3ccccc3)C(=O)Nc3ccc(F)cc3)CCC[C@]21C`, for which the IC50 came to 61.6 µM in the experiment on NCI-H460, 63.5 µM in the experiment on HeLa, 66.5 µM in experiment [1] and 20.1 µM with MGC-803.

With `COc1cc(NC(=O)[C@@H](Cc2ccccc2)NC(=O)[C@]2(C)CCC[C@]3(C)c4ccc(C(C)C)cc4C(=O)C[C@@H]23)cc(OC)c1OC`, the IC50 with NCI-H460 turned out to be 27.9 µM; in the experiment with HeLa it was 19.2 µM; in experiment [1], 57.4 µM; in the experiment with MGC-803, 26.4 µM.

Take `CC(C)c1ccc2c(c1)CC[C@H]1[C@](C)(C(=O)O)CCC[C@]21C` [DEHYDROABIETIC ACID]: the IC50 in the experiment on MGC-803 is above 100 µM.

For `CC(C)c1ccc2c(c1)C(=O)C[C@H]1[C@](C)(C(=O)N[C@@H](Cc3ccccc3)C(=O)Nc3ccc(Cl)cc3)CCC[C@]21C`, the IC50 with NCI-H460 stood at 49.1 µM; in the experiment on HeLa, 36 µM; in experiment [1], 57.8 µM; in the experiment on MGC-803, 29 µM.

For the molecule `CC(C)c1ccc2c(c1)/C(=N\O)C[C@H]1[C@](C)(C(=O)N[C@@H](Cc3ccccc3)C(=O)Nc3ccccc3Cl)CCC[C@]21C`, the IC50 is 36.5 µM in the experiment on NCI-H460, 22.8 µM in the experiment on HeLa, 45.9 µM in experiment [1] and 22.4 µM in the experiment on MGC-803.

For the molecule `CC(C)c1ccc2c(c1)/C(=N\O)C[C@H]1[C@](C)(C(=O)N[C@@H](Cc3ccccc3)C(=O)Nc3ccccc3)CCC[C@]21C`, the IC50 in the experiment with NCI-H460 amounted to 41.3 µM; in the experiment on HeLa, 16 µM; in experiment [1], 45.9 µM; in the experiment with MGC-803, 16 µM.

On to `CC(C)c1ccc2c(c1)/C(=N\O)C[C@H]1[C@](C)(C(=O)N[C@@H](Cc3ccccc3)C(=O)Nc3ccccc3F)CCC[C@]21C`, for which the IC50 was 44.8 µM in the experiment with NCI-H460, 34.1 µM in the experiment on HeLa, 57.5 µM in experiment [1] and 17.8 µM in the experiment with MGC-803.

For the molecule `COc1ccc(NC(=O)[C@@H](Cc2ccccc2)NC(=O)[C@]2(C)CCC[C@]3(C)c4ccc(C(C)C)cc4C(=O)C[C@@H]23)cc1`, the IC50 in the experiment on NCI-H460 turned out to be 34.3 µM; with HeLa, 16.3 µM; in experiment [1], 55.4 µM; with MGC-803, 39.6 µM.

Regarding `COc1ccccc1NC(=O)[C@H](Cc1ccccc1)NC(=O)[C@]1(C)CCC[C@]2(C)c3ccc(C(C)C)cc3C(=O)C[C@@H]12`, the IC50 with NCI-H460 was determined as 33.8 µM; in the experiment on HeLa it was 14.7 µM; in experiment [1], 57.5 µM; in the experiment with MGC-803, 39.4 µM.

Regarding `CC(C)c1ccc2c(c1)/C(=N\O)C[C@H]1[C@](C)(C(=O)N[C@@H](Cc3ccccc3)C(=O)Nc3ccc(F)cc3)CCC[C@]21C`, the IC50 with NCI-H460 came to 23.4 µM; with HeLa, 20.7 µM; in experiment [1] it was 49.7 µM; with MGC-803, 24.4 µM.

Take `COc1ccccc1NC(=O)[C@@H](Cc1ccccc1)NC(=O)[C@]1(C)CCC[C@]2(C)c3ccc(C(C)C)cc3/C(=N\O)C[C@@H]12`: the IC50 with NCI-H460 was 37.1 µM; in the experiment on HeLa, 18.4 µM; in experiment [1], 57.9 µM; with MGC-803, 18.7 µM.

Consider `COc1cc(NC(=O)[C@H](Cc2ccccc2)NC(=O)[C@]2(C)CCC[C@]3(C)c4ccc(C(C)C)cc4C(=O)C[C@@H]23)cc(OC)c1OC`, for which the IC50 with NCI-H460 amounted to 54.6 µM; with HeLa it was 49.6 µM; in experiment [1], 69.5 µM; with MGC-803 it was 21.3 µM.

As for `CC(C)c1ccc2c(c1)/C(=N\O)C[C@H]1[C@](C)(C(=O)N[C@H](Cc3ccccc3)C(=O)Nc3ccc(F)cc3)CCC[C@]21C`, the 50% inhibitory concentration (IC50) in the experiment on NCI-H460 was 58.6 µM; in the experiment with HeLa it was 20.6 µM; in experiment [1], 53.8 µM; in the experiment on MGC-803, 17.3 µM.
